Measured values published in patent US5942489A, “HGH-RH(1-29)NH2 analogues having antagonistic activity” (The Administrators of the Tulane Educational Fund, priority 1996, dated 1999).
Where “and” joins values, the source holds several entries; their conditions need not be identical. Equal entries are not always repeated. Where a SMILES comes first, the peptide text is derived from it. Where no end group is shown, it is not given here. [ ]: non-standard residue; d: D form.

Key:
[1] = tested on: SW-1990 human pancreatic cancers; experiment: SW 1990 human pancreatic cancers in nude mice; assay type: in vivo
Description: Small piees of an SW-1990 rumor growing in a nude mouse were transplated s.c. into the right flanks of 60 nu/nu male nude mice. Ten days after transplantation, 40 mice with well growing tumors were groupled into 4 groups with equal average tumor volume (16 mm^3) in each group. Treatment started 13 days after transplantation and was continuted for 44 days. The tumors were measured and volume was calculated weekly. Tumor volume changes are shown in Table V. On day 45 of treatment the mice were sacraficed under Metofane anesthesia by exsanguination from abdominal aorta. Blood was collected, tumor and organ weights were determined.

[2] = tested on: GH release stimulated by hGH-RH(1-29)NH2; experiment: In vivo inhibition of hGH-RH(1-29)NH2-stimulated serum GH in anesthetized rats; design: species or system Sprague-Dawley rats
Description: In Vivo Tests. Adult male Sprague-Dawley rats are anesthetized with pentobarbital (6 mg/100 g b.w., i.p.). Blood samples are taken from the jugular vein 30 min after the injection of pentobarbital. One group of 7 animals receives hGH-RH(1-29)NH2 as control. […] Blood samples are taken from the jugular vein 5 and 15 min after the injection of antagonists. GH levels are measured by RIA. Potencies of the antagonists are calculated by the factorial analysis of Bliss and Marks with 95% confidence limits and are based on the doses of 100 and 400 μg/kg b.w. of the Standard antagonist and 20 and 80 μg/kg b.w. of the antagonists tested. Statistical significance was assessed by Duncan's new multiple range test.

[3] = tested on: GH release induced by 1 nM hGH-RH(1-29)NH2 in superfused rat pituitary cells; experiment: Inhibition of hGH-RH(1-29)NH2-induced GH release in superfused rat pituitary system; assay type: cell-based; settings: 100 nM peptide
Description: Superfused Rat Pituitary System. The analogues were tested in vitro in a test described earlier (S. Vigh and A. V. Schally, Peptides 5:241-[…], 1984) with modification (Z. Rekasi and A. V. Schally, P. N. A. S. 90:2146-2149, 1993).
Briefly, the cells are preincubated with peptides for 9 minutes (3 mL) at various concentrations. Immediately after the incubation, 1 nM hGH-RH(1-29)NH2 is administered for 3 minutes (1 mL) [0 minute response]. To check the duration of the antagonistic effect of the analogue, 1 nM hGH-RH(1-29)NH2 is applied 30, 60, 90, and 120 minutes later for 3 minutes [30, 60, 90, 120 min responses]. Net integral values of the GH responses are evaluated. GH responses are compared to and expressed as percent of the original GH response induced by 1 nM GH-RH(1-29)NH2. The effect of the new antagonists are compared to that of [Ac-Tyr^1,D-Arg^2 ]hGH-RH(1-29)NH2, the "Standard antagonist".
Growth Hormone Radio-immunoassay. Rat GH levels in aliquots of undiluted and diluted superfusion samples were measured by double-antibody radioimmunoassay using materials supplied by the National Hormone and Pituitary Program, Baltimore, Md. The results of RIA were analyzed with a computer program developed in our institute (V. Csernus and A. V. Schally, Harwood Academic (Greenstein, B. C. ed., London, pp. 71-109, 1991), hereby incorporated by reference. Inter-assay variation was less than 15% and intra-assay variation was less than 10%.

[4] = biological target: T1, rat pituitary GH-RH receptors (Rattus norvegicus, UniProt Q02644); experiment: GH-RH radioreceptor binding assay, competition with labelled [His1,Nle27]hGH-RH(1-32)NH2
T1 construct: from tissue; host or cells: anterior pituitary of male Sprague-Dawley rats, crude membranes
T1 sequence (Q02644 23-464): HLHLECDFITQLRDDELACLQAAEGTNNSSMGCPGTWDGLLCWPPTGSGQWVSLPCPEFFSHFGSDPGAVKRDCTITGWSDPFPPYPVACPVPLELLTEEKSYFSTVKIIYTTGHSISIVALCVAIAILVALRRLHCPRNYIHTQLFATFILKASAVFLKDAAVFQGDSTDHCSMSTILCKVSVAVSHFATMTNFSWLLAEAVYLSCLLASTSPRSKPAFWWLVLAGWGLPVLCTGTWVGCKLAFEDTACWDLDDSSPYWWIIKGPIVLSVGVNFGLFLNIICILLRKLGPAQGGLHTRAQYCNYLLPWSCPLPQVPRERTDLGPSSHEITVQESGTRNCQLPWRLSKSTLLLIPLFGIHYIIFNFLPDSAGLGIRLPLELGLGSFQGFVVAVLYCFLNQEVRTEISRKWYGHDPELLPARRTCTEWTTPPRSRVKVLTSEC
Description: GH-RH Binding Assay. A sensitive radioreceptor binding assay was developed to determine the binding characteristics of the antagonists of GH-RH (G. Halmos, A. V. Schally et al., Receptor 3, 87-97, 1993), hereby incorporated by reference. The assay is based on binding of labelled [His^1, Nle^27 ]hGH-RH(1-32)NH2 to rat anterior pituitary membrane homogenates. Iodinated derivatives of [His^1, Nle^27 ]hGH-RH(1-32)NH2 are prepared by the chloramine-T method (F. C. Greenwood et al., Biochemistry 89:114-123, 1963), hereby incorporated by reference. Pituitaries from male Sprague-Dawley rats (250-300 g) are used to prepare crude membranes. For saturation binding analyses, membrane homogenates are incubated with at least 6 concentrations of [His^1,125I-Tyr^10,Nle^27 ]hGH-RH(1-32)NH2, ranging from 0.005 to 0.35 nM in the presence or absence of excess unlabelled peptide (1 μM).
The pellet is counted for radioactivity in a γ-counter. The affinities of the antagonist peptides tested to rat pituitary GH-RH receptors are determined in competitive binding experiments. The final binding affinities are estimated by Ki (dissociation constant of the inhibitor-receptor complex) and are determined by the Ligand PC computer program of Munson and Rodbard as modified by McPherson. Relative affinities compared to [Ac-Tyr^1, D-Arg^2 ]hGH-RH(1-29)NH2, the Standard antagonist, are calculated as the ratio of Ki of the tested GH-RH antagonist to the Ki of the Standard antagonist.

GH releasing activity = settings: cited from earlier work; for GH releasing activity relative to GH-RH: percent of that of GH-RH; for bioactivity of shorter analogues: compared with hGH-RH(1-29)NH2
GH release = settings: cited from earlier work
[5] = 80 μg/kg i.v., 15 min prior to GH-RH(1-29)NH2 3 μg/kg

Ibu^0 --D--Arg^2 --Phe(pCl)^6 --Abu^16 --Nle^27 ] hGHRH (1-28) Agm [Peptide A]
effect on growth of SW-1990 cancers (volume and weight data) ([1]; Peptide #8 at 10 μg/day): no significant effect on the tumors | Final Tumor Volume mm^3 ([1]; dose 10, 44 days treatment): 1183 ± 342 mm^3 | Tumor weights ([1]; dose 10, 44 days treatment): 1467 ± 595 mg | Final Tumor Volume mm^3 ([1]; dose 40, 44 days treatment): 902 ± 156 mm^3 | Tumor weights ([1]; dose 40, 44 days treatment): 1297 ± 258 mg | Inhibition % [2, 5]: 43% | Serum GH Levels [2, 5]: 585.33 ± 89.34 ng/mL | Serum GH Levels ([2]; 80 μg/kg i.v., 30 min prior to GH-RH(1-29)NH2 3 μg/kg): 788.39 ± 96.93 ng/mL

CC[C@H](C)[C@H](NC(=O)[C@H](C)NC(=O)[C@H](CC(=O)O)NC(=O)[C@@H](CCCNC(=N)N)NC(=O)[C@H](Cc1ccc(O)cc1)NC(C)=O)C(=O)N[C@@H](Cc1ccccc1)C(=O)N[C@H](C(=O)N[C@@H](CC(N)=O)C(=O)N[C@@H](CO)C(=O)N[C@@H](Cc1ccc(O)cc1)C(=O)N[C@@H](CCCNC(=N)N)C(=O)N[C@@H](CCCCN)C(=O)N[C@H](C(=O)N[C@@H](CC(C)C)C(=O)NCC(=O)N[C@@H](CCC(N)=O)C(=O)N[C@@H](CC(C)C)C(=O)N[C@@H](CO)C(=O)N[C@@H](C)C(=O)N[C@@H](CCCNC(=N)N)C(=O)N[C@@H](CCCCN)C(=O)N[C@@H](CC(C)C)C(=O)N[C@@H](CC(C)C)C(=O)N[C@@H](CCC(N)=O)C(=O)N[C@@H](CC(=O)O)C(=O)N[C@H](C(=O)N[C@@H](CCSC)C(=O)N[C@@H](CO)C(=O)N[C@@H](CCCNC(=N)N)C(N)=O)[C@@H](C)CC)C(C)C)[C@@H](C)O [Standard antagonist, [Ac-Tyr^1,D-Arg^2]hGH-RH(1-29)NH2] (Ac-Y[dR]DAIFTNSYRKVLGQLSARKLLQDIMSR-NH2)
Inhibition of GH release (%) 0 min ([3]; 0 min response): 62.1% | Inhibition of GH release (%) 30 min ([3]; 30 min response): 2.5% | Inhibition of GH release (%) 60 min ([3]; 60 min response): 19% | Ki ([4]; rat anterior pituitary membrane homogenates, read-out: Ki values, K): 3.37 ± 0.14 nM | relative affinities (R.A.) ([4]; relative to Standard antagonist (=1)): 1

[Ac-Tyr^1 ]GH-RH (Ac-YADAIFTNSYRKVLGQLSARKLLQDIMSRQQGESNQERGARARL; ends and bridges not checked; UniProt P01286 32-75, looked up)
GH releasing activity relative to GH-RH (GH releasing activity): 2-3%

hGH-RH(2-44) (ADAIFTNSYRKVLGQLSARKLLQDIMSRQQGESNQERGARARL; ends and bridges not checked; UniProt P01286 33-75, looked up, fragment) [GH-RH without its N-terminus residue]
GH releasing activity relative to GH-RH (GH releasing activity): 0.1%

GH-RH(1-27)NH2 (YADAIFTNSYRKVLGQLSARKLLQDIM-NH2; UniProt P01286 32-58, looked up, fragment)
bioactivity of shorter analogues (GH releasing activity): substantially lower bioactivity

[AcTyr^1 ]hGH-RH(1-29)NH2
in vivo potency over that of GH-RH (GH release): ten fold or more

GH-RH(1-28)NH2 (YADAIFTNSYRKVLGQLSARKLLQDIMS-NH2; UniProt P01286 32-59, looked up, fragment)
bioactivity of shorter analogues (GH releasing activity): substantially lower bioactivity

CC[C@H](C)[C@H](NC(=O)[C@H](C)NC(=O)[C@H](CC(=O)O)NC(=O)[C@H](C)NC(=O)[C@@H](N)Cc1ccc(O)cc1)C(=O)N[C@@H](Cc1ccccc1)C(=O)N[C@H](C(=O)N[C@@H](CC(N)=O)C(=O)N[C@@H](CO)C(=O)N[C@@H](Cc1ccc(O)cc1)C(=O)N[C@@H](CCCNC(=N)N)C(=O)N[C@@H](CCCCN)C(=O)N[C@H](C(=O)N[C@@H](CC(C)C)C(=O)NCC(=O)N[C@@H](CCC(N)=O)C(=O)N[C@@H](CC(C)C)C(=O)N[C@@H](CO)C(=O)N[C@@H](C)C(=O)N[C@@H](CCCNC(=N)N)C(=O)N[C@@H](CCCCN)C(=O)N[C@@H](CC(C)C)C(=O)N[C@@H](CC(C)C)C(=O)N[C@@H](CCC(N)=O)C(=O)N[C@@H](CC(=O)O)C(=O)N[C@H](C(=O)N[C@@H](CCSC)C(=O)N[C@@H](CO)C(=O)N[C@@H](CCCNC(=N)N)C(N)=O)[C@@H](C)CC)C(C)C)[C@@H](C)O [GH-RH (1-29) NH2, Tyr-Ala-Asp-Ala-Ile^5 -Phe-Thr-Asn-Ser-Tyr^10 -Arg-Lys-Val-Leu-Gly^15 -Gln-Leu-Ser-Ala-Arg^20 -Lys-Leu-Leu-Gln-Asp^25 -Ile-Met-Ser-Arg^29 -NH2]
Serum GH Levels ([2]; GH-RH(1-29)NH2 alone 3.0 μg/kg i.v. (stimulated control)): 695.15 ± 95.40 ng/mL and 703.34 ± 90.01 ng/mL and 724.68 ± 93.01 ng/mL and 883.36 ± 148.34 ng/mL and 703.34 ± 93.01 ng/mL

[PhAc^0,D-Arg^2,Phe(pCl)^6,Abu^15,Nle^27 ]hGH-RH(1-28)Agm [Peptide B]
Final Tumor Volume mm^3 ([1]; dose 10, 44 days treatment): 612 ± 220 mm^3 | Tumor weights ([1]; dose 10, 44 days treatment): 931 ± 330 mg

[D-Tyr^1 ]GH-RH
GH releasing activity relative to GH-RH (GH releasing activity): 2-3%
